Reference: US20200000798A1, “PROCESS FOR […] ALKALOID FRACTION OF R[…] (HERB.) TRAUB AND USES THEREOF” (UNIVERSIDADE FEDERAL DO RIO GRANDE DO SUL-UFRGS, priority 2013, published 2020)

Experiments:
[1] = test system: lymphocytes from draining lymph nodes; assay: Lymphocyte viability test (MTT); assay type: cell-based; conditions: 48 hours
Protocol: A lymphocyte viability test was performed to evaluate the cytotoxicity of montanine using a colorimetric MTT [3-(4,5-dimethylthiazol-2-yl)-2,5-diphenyl tetrazolium bromide] assay, as described by Tomita T. et al. 2006. Animals were euthanized and their draining lymph nodes (popliteal and inguinal) were removed aseptically. A single cell suspension was prepared, grown in triplicate (5×10^5 cells/well in a 96 well plate) and treated with montanine at the dosages (0.01 μM, 0.1 μM, 1 μM, 10 μM and 100 μM) for 48 hours at 37° C. at 5% CO2 in RPMI medium. After incubation, MTT (0.5 mg/ml) was added to each well and the plate was placed in the stove again and after 4 hours the supernatant was removed and 50 μI of dimethyl sulphoxide (DMSO, Sigma) were added. After the plate was shaken to dissolve the MTT formazan crystals, optical density (OD) of each well was measured at 570 nm using a microplate ELISA reader.

[2] = test system: collagen type II-induced arthritis in DBA/1J mice; assay: Collagen-induced arthritis (CIA) model with prophylactic treatment; assay type: in vivo
Protocol: The chronic arthritis model most widely used in the world literature is the model of collagen type II-induced arthritis (CIA). Said model shares many pathological features with the disease, such as type II collagen (CM), the major cartilage protein and one of the potential RA self-antigens. […]
After the boost injection, treatment at dosages of 0.05; 0,25 and 0.5 mg/kg was started and continued for 15 days (twice daily, intraperitoneally) and animals were monitored daily for clinical signs of the disease.
Animals were monitored daily for analyzing the clinical signs of arthritis by means of the severity score as follows: 0—no signs of disease; 1—mild erythema and edema; 2—moderate erythema and edema; 3—severe erythema and edema extending from the knee to the metatarsus; 4—severe erythema and edema with loss of function. […]
(§1) The tibio-tarsal joints of DBA/1 J animals were isolated and immersed in 10% buffered formalin for fixation for 24 hours. […] All the cuts were assessed under a microscope by two blinded observers, and the images captured by digital camera.

healthy mice = assay: Immunosuppression assay in healthy animals (complete blood count); assay type: in vivo; conditions: 0.5 or 1.5 mg/kg every 12 hours for 3 days, then 3 days without treatment
Protocol: An immunosuppression assay in healthy animals was performed to assess the role of montanine as an immunosuppressive agent. 20 male, healthy mice of 8-12 weeks of age were used for examining the whole blood (complete blood count—parameters of: total of white blood cells (WBC); % lymphocytes (Lin %), lymphocytes/mm3 (Lin mm30; % monocytes (Mon %); monocytes/mm3 (Mon mm3); % granulocytes (Gran %); granulocytes/mm3 (Gran/mm3); total of red blood cells (RBC); hemoglobin (HGB) and total of platelets (PLQ)) of animals, which were divided as follows: healthy animals (with no treatment given) (n=4), animals treated with 0.5 or 1.5 mg/kg de montanine/12-12 hours (n=8/group). Whole blood was collected at day 0 for basal analysis of the blood parameters of the complete blood count in all animals, they were then treated for 3 days with the two doses and on the third day blood was collected again for complete blood count analysis; also, animals were still alive for three more days without any treatment for a new blood collection (FIG. 9).

synovial fibroblasts = assay: Synovial fibroblast invasion test (matrigel inserts); assay type: cell-based; conditions: 1 μM, 24 h, five lines tested, vs DMSO vehicle
Protocol: To evaluate the invasion of synovial fibroblasts into matrigel inserts (collagen matrix) a BD kit (Franklin Lakes, N.J., USA) was used, and the test was performed in accordance with the manufacturer specifications.
When cells reached 70-80% confluence, they were trypsinized with trypsin-EDTA for digestion. Then, 2×10^4 cells were resuspended in 500 μI of free culture medium of fetal calf serum and placed on top of the insert. Montanine at a dose of 1 μM or the same concentration of vehicle (DMSO) was added on top of the insert with the cells. At the lower compartment 750 μI of culture medium with 10% fetal bovine serum was added. The plate was incubated at 37° C. for 24 h in a stove with 5% CO2. After the incubation period, the top of the chamber was cleaned with a swab, stained with crystal violet dye, and the total number of cells that invaded the Matrigel membrane was counted in an optical microscope at 100× magnification. Experiments were performed in duplicate.

lymphocyte migration = conditions: 100 micrograms/mL, vs placebo; cited from earlier work
[3] = test system: mBSA-induced arthritis in Balb-C mice; assay: Antigen-induced arthritis (AIA) model, mBSA-induced monoarthritis; assay type: in vivo
Protocol: Antigen-induced arthritis (AIA) is an animal model of arthritis that is broadly described and used in worldwide literature. One of the inducing antigens in this model in Balb-C mice is methylated bovine serum albumin (mBSA), which, after systemic immunization (subcutaneous injection) is injected into the joint.
Briefly, mice were immunized in three steps with mBSA (day-0, day-7 and day-14), the first step comprising […] of mBSA protein in an emulsion of 0.1 mL of complete Freund's adjuvant's (CFA) and 0.1 mL of sterile saline solution (0.9% sodium chloride), the second and third steps were performed with the same protein concentration, the same sterile saline solution concentration and the same adjuvant concentration, but in these steps incomplete Freund's adjuvant (IFA) was used; 3 weeks after the first immunization (day 21) mBSA at a concentration of 30 ug/mL were injected into the femorotibial joint (knee) and the contralateral knee was administered with sterile saline only and serves as the control of the experiment (Grespan et al. 2008). […] Treatment with montanine was given twice daily, one day before intra-articular challenge, at the day of the challenge and at day of death, by intraperitoneal route and diluted in saline. Doses tested were 0.3; 1; 3 mg/kg. One group of animals received the treatment vehicle (saline) for control purposes, said group being designated positive control. The experiment is terminated at day 22 (24 hours after challenge and treatment) when animals were euthanized to collect the joint lavage fluid. Lavage was performed using a PBS-EDTA solution and then the number of leukocytes existing in the joint was counted in a Neubauer chamber at a 1:2 dilution with Turk's solution. Furthermore, pain of the animals was assessed in a digital analgesia-meter (von Frey) prior to intra-articular injection at time 0 (zero), 3, 5 and 24 hours after intra-articular challenge.

[4] = test system: lymphocytes from draining lymph nodes; assay: Lymphocyte proliferation assay (MTT), LPS or ConA stimulated; assay type: cell-based, BALB/c mice; conditions: 1 μM, 48 h
Protocol: The in vitro lymphocyte proliferation was performed using the MTT colorimetric assay described by Tomita T et al. 2006. BALB/c mice were euthanized and their draining lymph nodes were removed aseptically. A single cell suspension was prepared, grown in triplicate (5×10^5 cells/well in a 96 well plate) and treated with montanine at the dosages of 1 μM for 48 h at 37° C. at 5% CO2 in RPMI medium containing […] lipopolysaccharide (LPS) or […] of conconavalin A (ConA) or RPMI medium alone as a culture control. After incubation, MTT (0.5 mg/ml) was added to each well and the plate was placed in the stove again and after 4 hours the supernatant was removed and 50 μI of dimethyl sulphoxide (DMSO, Sigma) were added. […] After the plate was shaken to dissolve the formazan crystals, optical density (OD) of each well was measured at 570 nm.
LPS acts primarily on the B cell receptor and the Toll-like receptor 4 (TLR4), molecules that are present on the surface of B lymphocytes, thus acting on these cells. ConA acts on several receptors containing glycoproteins or lipoproteins, stimulating both lymphocytes both but acting preferably on T lymphocytes.

[5] = test system: collagen type II-induced arthritis in DBA/1J mice; assay: Collagen-induced arthritis (CIA) model with therapeutic treatment; assay type: in vivo
Protocol: CIA induction is performed by following the aforementioned protocol.
After the boost injection, animals were monitored daily for clinical signs of the disease and treatment with montanine at 0.5 and 1.5 mg/kg is started on the day of clinical detection of CIA. Animals given sterile saline, the treatment vehicle, were deemed as the positive control group, i.e. untreated. The drug was administered twice daily for 10 days by the intraperitoneal route.
Animals were monitored daily for analyzing the clinical signs of arthritis by means of the severity score as follows: 0-no signs of disease; 1-mild erythema and edema; 2-moderate erythema and edema; 3-severe erythema and edema extending from the knee to the metatarsus; 4-severe erythema and edema with loss of function. The total score is the average of the scores on the legs from the onset of the disease.
Articular hypernociception was assessed as previously described by Pinto LG et al. 2010. For this model, a polypropylene tip was adapted to the manual force transducer, a force was applied on the subplantar surface of the paw producing tibiotarsal bending motion. The automatic pressure meter recorded the strength of the applied force when the paw is removed. The assay is repeated 3 times sequentially to provide a consistent measurement, the limiar being expressed in grams (g).
as §1, with “hours. Then, tissues were decalcified in 10% trichloroacetic acid (TCA) for approximately 18 hours. These tissues were dehydrated and embedded in paraffin blocks. Six pm-thick cuts were arranged on a microscope slide.” for “hours.”

[6] = 0.5 mg/kg i.p. twice daily for 10 days

CO[C@H]1C=C2[C@H]3C[N@@](Cc4cc5c(cc43)OCO5)[C@H]2C[C@@H]1O [montanine]
lymphocyte viability ([1]; 0.01 μM, 0.1 μM and 1 μM): did not alter cell viability | lymphocyte viability ([1]; 10 μM): no significant difference between the cell group and the group treated with the montanine at 10 μM, however, decreased cell viability can be seen | lymphocyte viability ([1]; 100 μM): decreased cell viability can be seen, which was higher in the 100 μM dose | highest dose that did not exhibit any cytotoxic effects on the cells ([1]; lymphocytes, MTT): 1 µM | histological parameters of the joint ([2]; 0.5 mg/kg i.p. twice daily for 15 days): improved all the histological parameters of the joint, except for synovial hyperplasia | arthritis clinical score ([2]; 0.25 and 0.5 mg/kg i.p. twice daily, from day 8 of treatment): reduced clinical score | immunosuppression (complete blood count) (healthy mice): does not lead to immunosuppression in any of the tested dosages | invasion of synovial fibroblasts (synovial fibroblasts): reduced the invasion of synovial fibroblasts of the five lines tested | anti-inflammatory effect on the lymphocyte migration model (lymphocyte migration): unable to generate a different effect than the placebo | pain (joint hypernociception), onset of decrease ([3]; 3 mg/kg i.p. twice daily): decrease as of 3 hours | pain (joint hypernociception, von Frey) ([3]; 0.3, 1, 3 mg/kg i.p. twice daily, 0, 3, 5 and 24 hours after intra-articular challenge): reduction in pain at all tested doses | total leukocyte migration to the femorotibial joint ([3]; 0.3, 1, 3 mg/kg i.p., 24 hours after challenge, compared with saline group): significantly reduced at all three doses | lymphocyte proliferation stimulated by ConA ([4]; ConA): significantly decreased | lymphocyte proliferation stimulated by LPS ([4]; LPS): had no effect | arthritis clinical score ([5]; 0.5 mg/kg i.p. twice daily): reduction of the clinical score from the third day of treatment | histological parameters of the joint [5, 6]: improved all the histological parameters, except for synovial hyperplasia | pain (articular nociception) [5, 6]: reduced pain
